Target: T1, Prostaglandin G/H synthase 1 (Ovis aries, UniProt P05979)
T1 sequence (P05979 whole entry): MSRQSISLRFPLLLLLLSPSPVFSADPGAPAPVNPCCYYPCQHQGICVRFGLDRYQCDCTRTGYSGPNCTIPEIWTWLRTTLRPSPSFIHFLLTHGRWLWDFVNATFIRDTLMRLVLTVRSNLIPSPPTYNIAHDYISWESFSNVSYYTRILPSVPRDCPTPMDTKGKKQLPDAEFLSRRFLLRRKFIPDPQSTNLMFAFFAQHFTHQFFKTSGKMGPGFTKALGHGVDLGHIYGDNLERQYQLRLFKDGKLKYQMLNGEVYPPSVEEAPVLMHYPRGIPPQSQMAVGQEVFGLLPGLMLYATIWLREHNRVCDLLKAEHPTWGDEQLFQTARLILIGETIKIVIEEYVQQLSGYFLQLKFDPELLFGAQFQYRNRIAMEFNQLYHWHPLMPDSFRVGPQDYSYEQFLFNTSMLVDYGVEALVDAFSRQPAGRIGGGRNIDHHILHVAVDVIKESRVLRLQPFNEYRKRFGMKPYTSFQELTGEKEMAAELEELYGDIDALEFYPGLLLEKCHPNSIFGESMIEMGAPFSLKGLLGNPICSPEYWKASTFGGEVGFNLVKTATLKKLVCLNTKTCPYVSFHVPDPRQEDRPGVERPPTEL
Assay: Inhibition of ovine COX1 by enzyme immuno assay

IC50 [µM] | SMILES
> 50 | O=C1Nc2ccc(F)cc2C12CC(c1ccc(Br)cc1)N=N2 (configuration not stated)
> 50 | Cc1ccc(C2CC3(N=N2)C(=O)Nc2ccc(F)cc23)cc1 (configuration not stated)
